From PubChem BioAssay AID651675 (Sanford-Burnham Center for Chemical Genomics, 2012)
The source made the active and inactive calls.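 How the source made its calls: active means compounds raising alpha-dystroglycan glycosylation signal with mean half-maximal concentration of 20 µM or lower; inactive means the rest.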

System: Pro5-aDG cells, alpha-DG glycosylation, IIH6 AlphaLISA
Test: alpha-DG glycosylation activators, analog potency, SAR follow-up, Pro5-aDG cells, AlphaLISA (AID 651675)

SMILES | EC50
CC(Cc1ccccc1)Nc1nc(-c2c[nH]c3ccccc23)cs1 (centres undefined) | 8.68 µM
c1ccc(CCNc2nc(-c3c[nH]c4ccccc34)cs2)cc1 | 5.13 µM
CNc1nc(-c2c[nH]c3ccccc23)cs1 | 10.3 µM
CCc1cccc2c(-c3csc(NC)n3)c[nH]c12 | 3.99 µM
C=CCNc1nc(-c2c[nH]c3ccccc23)cs1 | 5.69 µM
CCC(C)Nc1nc(-c2c[nH]c3ccccc23)cs1 (centres undefined) | 7.05 µM

Now from value to compound:

EC50 | SMILES
15.5 µM | N=c1n(CC(=O)c2ccc(Cl)c(Cl)c2)c2ccccc2n1Cc1ccccc1
34.5 µM (inactive) | Cn1c(=N)n(CC(=O)c2ccc(F)cc2)c2ccccc21
26.6 µM (inactive) | CCn1c(=N)n(CC(=O)c2ccc(Cl)cc2)c2ccccc21
30.9 µM (inactive) | Cn1c(=N)n(CC(=O)c2ccc(Cl)cc2)c2ccccc21
26 µM (inactive) | Cn1c(=N)n(CC(=O)c2ccc(Cl)c(Cl)c2)c2ccccc21
24.2 µM (inactive) | N=c1n(CCN2CCCC2)c2ccccc2n1CC(=O)c1ccc(Cl)c(Cl)c1
25.2 µM (inactive) | CCn1c(=N)n(CC(=O)c2ccc(Cl)c(Cl)c2)c2ccccc21
33.3 µM (inactive) | C=CCn1c(=N)n(CC(=O)c2ccc(Cl)c(Cl)c2)c2ccccc21
